Where two headings read alike, the source gives them in different places.

One series deals with Pyrenophora teres. Kind of series: Pyrenophora teres test (barley)/protective. Type of series: in vivo. An outline of the steps: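 Protective test: young barley plants sprayed at the stated rate with compound in DMF/alkylaryl polyglycol ether diluted with water, inoculated with P. teres spores 1 day later, kept 48 h at 100% rel. humidity and 22° C., then greenhouse at 80% and 20° C. Efficacy scored 7-9 days post-inoculation (0% = control, 100% = no infection).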

In series [1] the test system is Fusarium graminearum. It counts as in vivo.
Series [2] deals with Fusarium nivale (var. majus). Put plainly: Fusarium nivale (var. majus) test (wheat)/protective. It counts as in vivo. Particulars: 1000 ppm active compound, protective, evaluation 5 days after inoculation. In short, it runs like this: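 Protective spray of young wheat plants at the stated rate (compound in dimethylacetamide with emulsifier, diluted in water), then inoculation with Fusarium nivale spores once dry. Plants kept at 10 °C and 100% humidity; scored 5 days after inoculation as % efficacy, where 0% equals untreated control and 100% means no infection.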

Series [3] has as its system Fusarium graminearum. Put plainly: microbe, parasite or virus in culture. Type of series: cell-based.
The test system of the next series is Sphaerotheca fuliginea. Kind of series: Sphaerotheca test (cucumber)/protective. Type of series: in vivo. In short, it runs like this: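 Protective test: young cucumber plants sprayed with compound (DMF/alkylaryl polyglycol ether concentrate diluted in water) at the stated rate, inoculated with S. fuliginea spores 1 day later, then kept in greenhouse at 23 °C, 70% RH. Efficacy scored 7 days post-inoculation; 0% equals untreated control, 100% means no infection.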

The subject of another series is Phakopsora pachyrhizi. Put plainly: Phakopsora test (Sojabohnen)/protective. It counts as in vivo. Particulars: 250 ppm active compound, protective, evaluation 1 day after inoculation. Here is the method: (§1) Solvent: 28.5 parts by weight of acetone
(§2) Emulsifier: 1.5 parts by weight of alkylaryl polyglycol ether
(§3) To produce a suitable preparation of active compound, 1 part by weight of active compound is mixed with the stated amount of solvent, and the concentrate is diluted with water and the stated amount of emulsifier to the desired concentration.
[…] 1 day after the treatment, the plants are inoculated with an aqueous spore suspension of Phakopsora pachyrhizi. The plants are then placed in a greenhouse at 80% relative atmospheric humidity and 20° C.
Evaluation is carried out 1 day after the inoculation. 0% means an efficacy which corresponds to that of the control, whereas an efficacy of 100% means that no infection is observed.

In another series the test system is Alternaria solani. Kind of series: Alternaria test (tomato)/protective. It counts as in vivo. In short, it runs like this: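 Young tomato plants were sprayed with compound (DMF/emulsifier formulation diluted in water) and inoculated with A. solani spores 1 day later. Plants were kept 24 h at 100% RH and 22 °C, then at 96% RH and 20 °C. Efficacy was scored 7 days post-inoculation, where 0% equals untreated control and 100% means no infection.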

A further series deals with DON/AcDON production. Kind of series: microbe, parasite or virus in culture. The note with it: 7 days at 28° C. Type of series: cell-based, Fusarium graminearum.
The next series concerns Phytophthora infestans. Type of series: in vivo.
Series [4] is described as follows: log P determination by HPLC retention times (alkan-2-one calibration).
Another series deals with Venturia inaequalis. Kind of series: Venturia test (apple)/protective. Particulars: 100 ppm active compound, protective, evaluation 10 days after inoculation. Type of series: in vivo. An outline of the steps:
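Young apple plants sprayed protectively with compound (in acetone/dimethylacetamide with alkylaryl polyglycol ether, diluted in water) at the stated rate, then inoculated with V. inaequalis conidia once dry. Held 1 day at ~20° C, 100% humidity, then greenhouse ~21° C, ~90% humidity; efficacy scored 10 days post-inoculation (0% = control, 100% = no infection).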

Another series relates to Leptosphaeria nodorum. Kind of series: Leptosphaeria nodorum test (wheat)/protective. Type of series: in vivo. An outline of the steps: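 Young wheat plants were sprayed protectively, then inoculated 1 day later with L. nodorum spores and held 48 h at 100% humidity and 22° C. They were then kept in a greenhouse at 90% humidity and 22° C. Efficacy was scored 7-9 days post-inoculation, where 0% equals control and 100% means no infection.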

The test system of a further series is Puccinia triticina. Put plainly: Puccinia triticina test (wheat)/protective. Type of series: in vivo. An outline of the steps:
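Protective test: young wheat plants sprayed with compound (dimethylacetamide/alkylaryl polyglycol ether formulation, water-diluted) at stated rate, then inoculated with Puccinia triticina spores once dry; 48 h at 20 °C, 100% RH, then greenhouse ~20 °C, ~80% RH. Efficacy scored 8 days post-inoculation, 0% = control, 100% = no infection.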

In another series the test system is Uromyces appendiculatus. Kind of series: Uromyces test (bean)/protective. It counts as in vivo. In short, it runs like this:
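Young bean plants sprayed with compound formulated in acetone/dimethylacetamide with emulsifier, inoculated with Uromyces appendiculatus spores after drying, held 1 day at ~20 °C and 100% humidity, then greenhouse ~21 °C, ~90% humidity. Efficacy scored 10 days post-inoculation, 0% = untreated control, 100% = no infection.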

For another series, the system named is Botrytis cinerea. Put plainly: Botrytis test (bean)/protective. It counts as in vivo. Particulars: 100 ppm active compound, protective, evaluation 2 days after inoculation. An outline of the steps:
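Young bean plants sprayed at the stated rate with compound in acetone/dimethylacetamide plus alkylaryl polyglycol ether emulsifier, diluted in water. Once dry, each leaf got 2 agar pieces colonized by Botrytis cinerea; kept dark at about 20° C., 100% humidity. Infected area scored after 2 days; 0% = control, 100% = no infection.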

The next series has as its system Pyricularia oryzae. The note with it: in vivo.
The subject of the next series is Septoria tritici. Kind of series: Septoria tritici test (wheat)/protective. It counts as in vivo. The note with it: in vivo. In short, it runs like this:
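Young wheat plants were sprayed protectively with compound (dimethylacetamide/emulsifier formulation diluted in water), then inoculated with Septoria tritici spores after drying. Incubation was 48 hours at 20° C and 100% humidity, then 60 hours at 15° C and 100% humidity, then greenhouse at about 15° C, 80% humidity; efficacy was scored 21 days post-inoculation (0% = control, 100% = no infection).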

In another series the test system is Rhizoctonia solani. Put plainly: Rhizoctonia test (rice)/protective. Type of series: in vivo. The note with it: 250 ppm active compound, protective, evaluation 4 days after inoculation. The procedure: as §1, §2, §3
To test for protective activity, young rice plants are sprayed with the active compound preparation at the stated application rate. 1 day after the treatment, the plants are inoculated with hyphae of Rhizoctonia solani. The plants are then placed in a greenhouse at 100% relative atmospheric humidity and 25° C.
Evaluation is carried out 4 days after the inoculation. 0% means an efficacy which corresponds to that of the control, whereas an efficacy of 100% means that no infection is observed.

In another series the test system is Cochliobolus miyabeanus. Kind of series: Cochliobolus test (rice)/protective. The note with it: 250 ppm active compound, protective, evaluation 4 days after inoculation. Type of series: in vivo.
For another series, the system named is Gibberella zeae. The note with it: in vivo.
The mark [5] stands for this setting: 500 ppm active compound, tomato, protective, evaluation 7 days after inoculation.

Broadly, the inhibition is how much of the control response was suppressed. Broadly, the chromatographic logP is a lipophilicity value derived from retention on a column. A high value points to higher lipophilicity. Turning to `CCC(=O)Nc1cc(-c2c(-c3ccc(F)cc3)nn3c2CCCC3)ccn1` [Example 5, N-{4-[2-(4-Fluorophenyl)-4,5,6,7-tetrahydropyrazolo[1,5-a]pyridin-3-yl]pyridin-2-yl}propanamide], the efficacy in % came out at 100% in the series with Pyrenophora teres (500 ppm active compound, barley, protective, evaluation 7-9 days after inoculation); 100% in the series with Fusarium graminearum [1] (1000 ppm active compound, barley, protective, evaluation 5 days after inoculation); 100% in [2]; 95% with Sphaerotheca fuliginea (500 ppm active compound, cucumber, protective, evaluation 7 days after inoculation); 80% in the series with Phakopsora pachyrhizi; 100% in the series on Alternaria solani (setting [5]). The efficacy in % worked out at 95% with Phytophthora infestans (setting [5]); 98% in the series on Venturia inaequalis; 94% in the series with Leptosphaeria nodorum (500 ppm active compound, wheat, protective, evaluation 7-9 days after inoculation); 100% in the series on Puccinia triticina (1000 ppm active compound, wheat, protective, evaluation 8 days after inoculation); 98% with Uromyces appendiculatus (100 ppm active compound, bean, protective, evaluation 10 days after inoculation); 100% in the series with Botrytis cinerea. Also, the inhibition at 50 µM in the series with Fusarium graminearum [3] (Fusarium graminearum, 72 h, read-out: % inhibition of the fungal growth of Fusarium graminearum at 50 μM) came out at 100%; in the series with DON/AcDON production (Fusarium graminearum, 168 h) it was 99%. In addition, the chromatographic logP worked out at 1.97 in [4] (log P(HCOOH), HCOOH, preparation examples in the text); 1.97 in [4] (log P, values marked [a] in Table 1); 2.58 in [4] (log P, values marked [b] in Table 1).

For the molecule `CC(C)CC(=O)Nc1cc(-c2c(-c3ccccc3)nn3c2CCCC3)ccn1` [Example 31], the efficacy in % was found to be 100% in the series on Pyrenophora teres (in vivo); 100% with Fusarium graminearum [1] (in vivo); 100% in series [2]; 95% in the series on Sphaerotheca fuliginea (in vivo); 98% in the series on Pyricularia oryzae; 100% in the series on Septoria tritici. The efficacy in % in the series on Alternaria solani (in vivo) is given as 94%; in the series with Phytophthora infestans (in vivo), 80%; in the series with Venturia inaequalis, 100%; with Rhizoctonia solani, 100%; in the series with Leptosphaeria nodorum (in vivo), 90%; in the series on Cochliobolus miyabeanus it was 95%. Moreover, the efficacy in % is reported as 94% in the series on Puccinia triticina (in vivo), 80% in the series on Gibberella zeae, 94% with Uromyces appendiculatus (in vivo) and 90% in the series with Botrytis cinerea. Also, the “% inhibition of the fungal growth of Fusarium graminearum at 50 μM” value (from here on “% inhibition of the fungal growth … at 50 μM”) with Fusarium graminearum [3] worked out at 97%. Moreover, the “% inhibition of DON/AcDON at 50 μM” value in the series on DON/AcDON production was determined as 99%.

Consider `CC(C)C(=O)Nc1cc(-c2c(-c3ccccc3)nn3c2CCCC3)ccn1` [Example 29], for which the efficacy in % with Pyrenophora teres (in vivo) is recorded as 100%; in the series with Fusarium graminearum [1] (in vivo) it was 94%; in series [2] it was 86%; in the series with Sphaerotheca fuliginea (in vivo), 83%; in the series with Pyricularia oryzae, 95%; in the series on Septoria tritici it was 71%. The efficacy in % worked out at 100% with Alternaria solani (in vivo); 90% in the series with Phytophthora infestans (in vivo); 95% in the series on Venturia inaequalis; 100% in the series with Rhizoctonia solani; 90% with Leptosphaeria nodorum (in vivo); 95% in the series with Cochliobolus miyabeanus. Moreover, the efficacy in % with Puccinia triticina (in vivo) turned out to be 94%; in the series on Gibberella zeae, 80%; in the series with Uromyces appendiculatus (in vivo), 94%; in the series on Botrytis cinerea it was 100%. In the series on Fusarium graminearum [3], the “% inhibition of the fungal growth … at 50 μM” value amounted to 100%. Further, the “% inhibition of DON/AcDON at 50 μM” value in the series on DON/AcDON production was 99%.

For `O=C(Cc1ccccc1)Nc1cc(-c2c(-c3ccc(F)cc3)nn3c2CCCC3)ccn1` [Example 34], the efficacy in % with Pyrenophora teres (in vivo) is reported as 94%; with Fusarium graminearum [1] (in vivo), 100%; in series [2], 100%; in the series with Sphaerotheca fuliginea (in vivo), 100%; in the series with Pyricularia oryzae, 95%; in the series with Septoria tritici, 93%. Besides, the efficacy in % in the series on Alternaria solani (in vivo) is 100%; with Phytophthora infestans (in vivo), 95%; in the series on Venturia inaequalis it was 95%; with Rhizoctonia solani, 85%; in the series on Leptosphaeria nodorum (in vivo) it was 95%; in the series with Cochliobolus miyabeanus, 90%. Moreover, the efficacy in % in the series on Puccinia triticina (in vivo) turned out to be 94%; in the series on Gibberella zeae, 80%; with Uromyces appendiculatus (in vivo) it was 95%; in the series on Botrytis cinerea, 99%. In addition, the “% inhibition of the fungal growth … at 50 μM” value in the series on Fusarium graminearum [3] is listed as 98%. Also, in the series on DON/AcDON production, the “% inhibition of DON/AcDON at 50 μM” value amounted to 99%.

The record behind these values is patent US8507472B2 (priority 2010, dated 2013).
